Consider 15 compounds from ChEMBL document CHEMBL1909046, “DrugMatrix in vitro pharmacology data”.

Data set [1] can be described thus: DRUGMATRIX: Purinergic P2X radioligand binding (ligand: [3H] alpha, beta-Methylene-ATP). Format: cell membranes, Oryctolagus cuniculus, New Zealand albino, Urinary bladder, Membrane. The note with it: Not Active = under 50% inhibition at 10 µM.
Data set [2] can be described thus: DRUGMATRIX: Calcium Channel Type L, Phenylalkylamine radioligand binding (ligand: [3H] (-)-Desmethoxyverapamil (D-888)). The class given is cell membranes, Rattus norvegicus, Wistar, Brain, Membrane. To be noted: Not Active = under 50% inhibition at 10 µM.
The next data set has as its target T1, Cytochrome P450 2A6 (Homo sapiens, UniProt P11509). Note: in other assays of this panel Not Active means under 50% inhibition at 10 µM.
T1 sequence (P11509 whole entry): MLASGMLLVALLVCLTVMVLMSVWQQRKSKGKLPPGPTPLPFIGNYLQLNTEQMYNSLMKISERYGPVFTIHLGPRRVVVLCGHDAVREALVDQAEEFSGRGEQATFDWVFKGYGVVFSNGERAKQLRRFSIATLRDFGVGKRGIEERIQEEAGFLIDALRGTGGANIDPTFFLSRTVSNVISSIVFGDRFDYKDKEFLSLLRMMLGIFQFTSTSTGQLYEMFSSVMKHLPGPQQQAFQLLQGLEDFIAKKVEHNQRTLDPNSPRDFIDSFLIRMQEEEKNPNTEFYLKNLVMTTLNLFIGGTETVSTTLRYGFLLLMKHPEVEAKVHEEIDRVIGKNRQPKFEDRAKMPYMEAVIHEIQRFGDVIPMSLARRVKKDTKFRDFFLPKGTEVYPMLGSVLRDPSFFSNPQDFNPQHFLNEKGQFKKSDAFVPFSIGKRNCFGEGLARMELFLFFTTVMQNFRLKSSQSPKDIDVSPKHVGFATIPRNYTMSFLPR
The note with it: bti-tn-5b1-4.

Data set [3] deals with 5-hydroxytryptamine receptor 4 (Cavia porcellus, UniProt O70528). The class given is cell membranes, Dunkin-Hartley, Striatum, Membrane.
Sequence of 5-hydroxytryptamine receptor 4 (O70528 whole entry): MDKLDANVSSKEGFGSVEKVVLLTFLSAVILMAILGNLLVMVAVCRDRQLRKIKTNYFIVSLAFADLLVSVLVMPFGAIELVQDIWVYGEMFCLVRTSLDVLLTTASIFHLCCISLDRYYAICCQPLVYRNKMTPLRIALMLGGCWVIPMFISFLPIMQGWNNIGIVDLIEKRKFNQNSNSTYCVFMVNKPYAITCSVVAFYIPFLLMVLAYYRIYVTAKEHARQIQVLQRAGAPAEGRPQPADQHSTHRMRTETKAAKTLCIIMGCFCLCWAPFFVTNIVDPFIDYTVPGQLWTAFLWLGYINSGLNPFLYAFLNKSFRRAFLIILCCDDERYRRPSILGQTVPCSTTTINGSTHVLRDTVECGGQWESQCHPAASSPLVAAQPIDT
Data set [4] in a line: DRUGMATRIX: Calcium Channel Type L, Benzothiazepine radioligand binding (ligand: [3H] Diltiazem). Format: cell membranes, Rattus norvegicus, Wistar, Brain, Membrane. The note with it: Not Active = under 50% inhibition at 10 µM.
The nature of data set [5]: DRUGMATRIX: Nicotinic Acetylcholine radioligand binding (ligand: [125I] Epibatidine). The class given is cell membranes, Membrane. To be noted: imr-32; Not Active = under 50% inhibition at 10 µM.
In data set [6] the target is T2, Alpha-2A adrenergic receptor (Homo sapiens, UniProt P08913). Note: in other assays of this panel Not Active means under 50% inhibition at 10 µM.
T2 sequence (P08913 whole entry): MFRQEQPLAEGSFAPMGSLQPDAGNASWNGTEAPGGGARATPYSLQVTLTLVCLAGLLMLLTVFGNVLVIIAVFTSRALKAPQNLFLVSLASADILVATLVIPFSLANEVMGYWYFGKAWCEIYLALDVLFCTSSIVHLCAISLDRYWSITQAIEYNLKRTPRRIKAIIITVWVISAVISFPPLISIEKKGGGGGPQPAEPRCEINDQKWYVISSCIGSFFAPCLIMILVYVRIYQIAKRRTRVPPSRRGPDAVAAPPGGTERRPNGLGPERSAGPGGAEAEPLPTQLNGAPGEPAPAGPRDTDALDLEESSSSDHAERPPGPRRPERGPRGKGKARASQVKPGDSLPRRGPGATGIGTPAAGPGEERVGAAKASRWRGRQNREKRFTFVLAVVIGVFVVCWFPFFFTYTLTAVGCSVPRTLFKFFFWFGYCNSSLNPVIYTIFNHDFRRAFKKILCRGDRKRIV
The class given is cell membranes, Sf9, Membrane.

Take `Cc1cccc(C)c1NC(=O)C1CCCCN1C` (stereo unspecified) [MEPIVACAINE]: the IC50 entry (in data set [1]; in data set [2]; at Cytochrome P450 2A6; in data set [3]; in data set [4]; in data set [5]) was “Not Active” each time. For the same compound, in data set [6] (sf9), the IC50 entry is “Not Active”. Further, the Ki result (in data set [1]; in data set [2]; at Cytochrome P450 2A6; in data set [4]; in data set [5]) was “Not Active” in each case.
As to `CN(C)C(=N)NC(=N)N` [METFORMIN], the IC50 entry (in data set [1]; in data set [2]; against Cytochrome P450 2A6; in data set [3]; in data set [4]; in data set [5]) was “Not Active” each time. In addition, the IC50 entry in data set [6] (sf9) is given as “Not Active”. Also, the Ki result (in data set [1]; in data set [2]; at Cytochrome P450 2A6; in data set [4]; in data set [5]) was “Not Active” each time.
On to `CC(C)(C)NCC(O)COc1cccc2c1CC(O)C(O)C2` (stereo unspecified) [NADOLOL], for which the IC50 result (in data set [1]; in data set [2]; against Cytochrome P450 2A6; in data set [3]; in data set [4]; in data set [5]) was “Not Active” throughout. For the same compound, the IC50 entry in data set [6] (sf9) is on record as “Not Active”. In addition, the Ki entry (in data set [1]; in data set [2]; on Cytochrome P450 2A6; in data set [4]; in data set [5]) was “Not Active” each time.
On to `C[C@]12CC[C@H]3[C@@H](CCC4=CC(=O)CC[C@@H]43)[C@@H]1CC[C@@H]2O` [NANDROLONE], for which the IC50 entry (in data set [1]; in data set [2]; at Cytochrome P450 2A6; in data set [3]; in data set [4]; in data set [5]) was “Not Active” throughout. For the same compound, in data set [6] (sf9), the IC50 entry is listed as “Not Active”. In addition, the Ki result (in data set [1]; in data set [2]; on Cytochrome P450 2A6; in data set [4]; in data set [5]) was “Not Active” each time.
As to `CN(C)C(=O)Oc1cccc([N+](C)(C)C)c1.[Br-]` [NEOSTIGMINE BROMIDE], the IC50 entry (in data set [1]; in data set [2]; against Cytochrome P450 2A6; in data set [3]; in data set [4]; in data set [5]) was “Not Active” in each case. The IC50 entry in data set [6] (sf9) is “Not Active”. For the same compound, the inhibition constant Ki entry (in data set [1]; in data set [2]; on Cytochrome P450 2A6; in data set [4]; in data set [5]) was “Not Active” each time.
Take `NC(=O)c1cccnc1` [NIACINAMIDE]: the IC50 result (in data set [1]; in data set [2]; against Cytochrome P450 2A6; in data set [3]; in data set [4]; in data set [5]) was “Not Active” throughout. In data set [6] (sf9), the IC50 entry is recorded as “Not Active”. In addition, the Ki entry (in data set [1]; in data set [2]; at Cytochrome P450 2A6; in data set [4]; in data set [5]) was “Not Active” each time.
As to `CS(=O)(=O)Nc1ccc([N+](=O)[O-])cc1Oc1ccccc1` [NIMESULIDE], the concentration for half-maximal inhibition (IC50) entry (in data set [1]; in data set [2]; against Cytochrome P450 2A6; in data set [3]; in data set [4]; in data set [5]) was “Not Active” each time. The IC50 entry in data set [6] (sf9) is recorded as “Not Active”. Further, the Ki result (in data set [1]; in data set [2]; on Cytochrome P450 2A6; in data set [4]; in data set [5]) was “Not Active” each time.
For `CN1C(=O)CN=C(c2ccccc2)c2cc([N+](=O)[O-])ccc21` [NIMETAZEPAM], the IC50 result (in data set [1]; in data set [2]; against Cytochrome P450 2A6; in data set [3]; in data set [4]; in data set [5]) was “Not Active” throughout. The IC50 result in data set [6] (sf9) is “Not Active”. The Ki result (in data set [1]; in data set [2]; on Cytochrome P450 2A6; in data set [4]; in data set [5]) was “Not Active” throughout.
Take `COc1ccc2c(c1OC)C(=O)O[C@@H]2[C@H]1c2c(cc3c(c2OC)OCO3)CCN1C` [NOSCAPINE]: the IC50 result (in data set [1]; in data set [2]; against Cytochrome P450 2A6; in data set [3]; in data set [4]; in data set [5]) was “Not Active” in each case. In data set [6] (sf9), the IC50 entry was “Not Active”. The Ki result (in data set [1]; in data set [2]; at Cytochrome P450 2A6; in data set [4]; in data set [5]) was “Not Active” throughout.
`C[C@@H]1O[C@@H](O[C@H]2C[C@@H](O)[C@]3(CO)[C@H]4[C@H](O)C[C@]5(C)[C@@H](C6=CC(=O)OC6)CC[C@]5(O)[C@@H]4CC[C@]3(O)C2)[C@H](O)[C@H](O)[C@H]1O` [OUABAIN]: the IC50 entry (in data set [1]; in data set [2]; at Cytochrome P450 2A6; in data set [3]; in data set [4]; in data set [5]) was “Not Active” in each case. Further, the IC50 result in data set [6] (sf9) was “Not Active”. The Ki entry (in data set [1]; in data set [2]; at Cytochrome P450 2A6; in data set [4]; in data set [5]) was “Not Active” throughout.
Take `NC(=O)N1c2ccccc2CC(=O)c2ccccc21` [OXCARBAZEPINE]: the IC50 result (in data set [1]; in data set [2]; against Cytochrome P450 2A6; in data set [3]; in data set [4]; in data set [5]) was “Not Active” each time. The IC50 entry in data set [6] (sf9) was “Not Active”. The Ki entry (in data set [1]; in data set [2]; on Cytochrome P450 2A6; in data set [4]; in data set [5]) was “Not Active” throughout.
Turning to `COc1ccnc(C[S+]([O-])c2nc3ccc(OC(F)F)cc3[nH]2)c1OC` (stereo unspecified) [PANTOPRAZOLE], the IC50 entry (in data set [1]; in data set [2]; on Cytochrome P450 2A6; in data set [3]; in data set [4]; in data set [5]) was “Not Active” throughout. In addition, the IC50 entry in data set [6] (sf9) is “Not Active”. The Ki result (in data set [1]; in data set [2]; at Cytochrome P450 2A6; in data set [4]; in data set [5]) was “Not Active” in each case.
On to `N=C(N)c1ccc(OCCCCCOc2ccc(C(=N)N)cc2)cc1` [PENTAMIDINE], for which the IC50 entry in data set [1] was “Not Active”; in data set [2] (read-out: IC50), 1390 nM; against Cytochrome P450 2A6 it was “Not Active”; in data set [3], “Not Active”; in data set [4] (read-out: IC50) it was 2210 nM; in data set [5] it was “Not Active”. Moreover, in data set [6] (read-out: IC50), the IC50 turned out to be 1380 nM. Besides, the Ki result in data set [1] was “Not Active”; in data set [2] (read-out: Ki), 1350 nM; on Cytochrome P450 2A6, “Not Active”; in data set [4] (read-out: Ki) it was 1960 nM; in data set [5], “Not Active”; in data set [6] (read-out: Ki), 516 nM.
As to `NNCCc1ccccc1` [PHENELZINE], the IC50 result (in data set [1]; in data set [2]; on Cytochrome P450 2A6; in data set [3]; in data set [4]; in data set [5]) was “Not Active” throughout. Moreover, the IC50 result in data set [6] (sf9) is recorded as “Not Active”. Moreover, the Ki entry (in data set [1]; in data set [2]; at Cytochrome P450 2A6; in data set [4]; in data set [5]) was “Not Active” each time.
With `CCc1ccc(CCOc2ccc(CC3SC(=O)NC3=O)cc2)nc1` (stereo unspecified) [PIOGLITAZONE], the IC50 result (in data set [1]; in data set [2]; on Cytochrome P450 2A6; in data set [3]; in data set [4]; in data set [5]) was “Not Active” throughout. Also, in data set [6] (sf9), the IC50 entry is listed as “Not Active”. For the same compound, the Ki entry (in data set [1]; in data set [2]; on Cytochrome P450 2A6; in data set [4]; in data set [5]) was “Not Active” each time.
